Laboratory results: patent US12485095B2, “Plurality of tasquinimod particles and use thereof” (ACTIVE BIOTECH AB, priority 2021, dated 2025)
In brackets after ≈: the same amount, converted by molar mass.

Columns and labels:
[1] = gastrointestinal permeability using the Caco-2 cell model; type: in vitro ADME; conditions: human, read-out: permeability coefficient
Experimental: (§1) Tasquinimod is a compound having high gastrointestinal permeability and high aqueous solubility. […] For a drug compound to be classified as “highly soluble” according to the BCS, the highest single therapeutic dose thereof should be completely soluble in 250 ml or less of aqueous media over the pH range of 1.2-6.8 at 37±1° C. […] Based on these properties, tasquinimod is classified as a BCS Class I compound. […] In view of the high water-solubility of tasquinimod, the low dissolution rate of tasquinimod particles in aqueous phase was completely unexpected. A low dissolution rate is susceptible of reducing the bioavailability and may pose an obstacle to an efficient oral administration of an otherwise therapeutically active compound.

Caco-2 cell model = assay: as above; type: in vitro ADME
Experimental: as §1

[2] = aqueous solubility of tasquinimod; type: physicochemical
Experimental: as §1

pKa of tasquinimod = type: physicochemical; conditions: weak acid
[3] = Biopharmaceutics Classification System (BCS) classification; type: physicochemical; conditions: based on permeability and solubility
Experimental: as §1

SMILES: COc1cccc2c1c(O)c(C(=O)N(C)c1ccc(C(F)(F)F)cc1)c(=O)n2C [tasquinimod, 4-hydroxy-5-methoxy-N, 1-dimethyl-2-oxo-N-[4-(trifluoromethyl)phenyl]-1,2-dihydroquinoline-3-carboxamide]
- Papp [1]: 435 ± 9 nm/s
- permeability ranking according to the Biopharmaceutics Classification System (BCS) (Caco-2 cell model): highly permeable
- solubility relative to BCS "highly soluble" cut-off value ([2]; aqueous media over the pH range of 1.2-6.8 at 37±1° C.): ten-fold
- solubility ([2]; aqueous medium, pH 7.4, aqueous buffer): 0.25 mg/mL (≈ 615 µM)
- solubility relative to BCS "highly soluble" cut-off value ([2]; physiological pH at 7.4): 50 fold
- pKa (pKa of tasquinimod): 6.5
- BCS class [3]: BCS Class I
